Measured values reported in patent publication US12415819B2, “Cu- and Ni-catalyzed decarboxylative borylation reactions” (The Scripps Research Institute, priority 2017, dated 2025).
Where two headings read alike, the source gives them in different places. Residues, ends and D or L forms follow the SMILES beside them. *: point of attachment. Moc = COC(=O)*

Tests used:
[1] = biological target: human neutrophil elastase (Homo sapiens (Human), UniProt P08246); test: Elastase inhibition assay, purified human neutrophil elastase; type: biochemical; details: for IC50 / LipE: Purified NHE; for IC50: 30 minutes incubation at room temperature, 100 μM substrate
human neutrophil elastase, sequence (P08246 30-247): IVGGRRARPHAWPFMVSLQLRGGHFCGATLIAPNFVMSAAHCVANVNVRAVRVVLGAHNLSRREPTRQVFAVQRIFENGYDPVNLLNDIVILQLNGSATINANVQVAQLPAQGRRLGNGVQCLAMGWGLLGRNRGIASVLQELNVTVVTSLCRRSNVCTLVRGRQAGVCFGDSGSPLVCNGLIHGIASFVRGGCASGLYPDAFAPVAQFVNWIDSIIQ
Experimental: Serially diluted compounds in DMSO were dispensed into a 384-well black opaque plate by Echo dispenser. 0.1 μg/mL human neutrophil elastase (EPC, Catalog# SE563, Owensville, Ms.) or human sputum diluted with assay buffer (100 mM HEPES, 500 mM NaCl, 0.02% Tween 20) was added into the 384-well plate, and was incubated with different compounds at different concentrations for 30 minutes at room temperature. The final concentration of DMSO in the reaction was 0.1%. […] Slope of fluorescence intensity vs. time representing the Vmax of enzyme activity was calculated with MARS software. % relative inhibition was calculated as: […]
(§1) IC50 was calculated based on the % relative inhibition curve using log(agonist) vs. response (three parameters) method with Prism software. All experiments were performed in triplicate for at least three independent times.

[2] = biological target: elastase in CF patient sputum (Homo sapiens (Human), UniProt P08246); test: Elastase inhibition assay in CF patient sputum; type: biochemical; details: for IC50 / LipE: CF sputum
elastase in CF patient sputum, sequence (P08246 30-267): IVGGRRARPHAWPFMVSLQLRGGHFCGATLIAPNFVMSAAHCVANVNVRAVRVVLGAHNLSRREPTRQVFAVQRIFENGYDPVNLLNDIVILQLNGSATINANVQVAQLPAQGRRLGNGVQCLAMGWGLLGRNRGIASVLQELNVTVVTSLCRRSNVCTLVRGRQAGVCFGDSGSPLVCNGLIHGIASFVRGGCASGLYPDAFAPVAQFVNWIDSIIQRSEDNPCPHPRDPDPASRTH
Experimental: (§2) Serially diluted compounds in DMSO were dispensed into a 384-well black opaque plate by Echo dispenser. 0.1 μg/mL human neutrophil elastase (EPC, Catalog# SE563, Owensville, Ms.) or human sputum diluted with assay buffer (100 mM HEPES, 500 mM NaCl, 0.02% Tween 20) was added into the 384-well plate, and was incubated with different compounds at different concentrations for 30 minutes at room temperature. The final concentration of DMSO in the reaction was 0.1%. Elastase substrate MeOSuc-AAPV-AMC (Bachem, Catalog #I-1270, Torrance, CA) of 100 μM final concentration was then added into the reaction system just before enzyme kinetics were read on PheraSTAR plate reader at excitation of 380 nm and emission of 460 nm with a 3-minutes interval for 30 minutes in total. Slope of fluorescence intensity vs. time representing the Vmax of enzyme activity was calculated with MARS software. % relative inhibition was calculated as: […]
as §1
(§3) Human sputum was purchased from Discovery Life Sciences (Los Osos, CA). Human sputum was diluted 1:10 in volume with assay buffer (100 mM HEPES, 500 mM NaCl, 0.02% Tween 20) followed by vigorous vortexing. The 1:10 diluted human sputum was further diluted into 1:30, 1:90, 1:270, 1:810, and 1:2430. The elastase concentration was determined by elastase inhibition assay as described above. Specifically, a series of standards of human neutrophil elastase (starting at 2 μg/mL and further diluted 1:2 in volume) were prepared in the assay buffer. The samples and standards were plated in a 384-well black solid bottom plate; the substrate MeOSuc-AAPV-AMC of 100 μM final concentration was then added into the reaction system just before enzyme kinetics were read on PheraSTAR plate reader as mentioned above. The slope of enzymatic kinetic reading was calculated by MARS software. The elastase levels of the human sputum were calculated based on the standard curve.

[3] = biological target: elastase in COPD patient sputum (Homo sapiens (Human), UniProt P08246); test: Elastase inhibition assay in COPD patient sputum; type: biochemical
elastase in COPD patient sputum, sequence (P08246 30-267): as above
Experimental: as §2, §1, §3

[4] = Mouse Liver Microsomal Metabolic Stability Assay; details: for Remaining (*NCF = 60min): MLM 0.5, no co-factor; for Remaining (T = 60 min): MLM 0.5, with NADPH regenerating system
Experimental: 100 mM potassium phosphate buffer, pH 7.4. • 2. 10 mM MgCl2 • 3) Compound Dilution:
Intermediate solution was prepared by diluting 5 μL of compound or control stock solution (10 mM in DMSO) with DMSO (45 μL) and 1:1 Methanol/Water (450 μL) (concentration=100 μM, 45% MeOH). Working solution was prepared by diluting 50 μL of the intermediate solution with 450 μL of 100 mM potassium phosphate buffer, pH=7.4 (centration=10 μM, 4.5% MeOH). • 4) NADPH regenerating system (final Isocitric dehydrogenase concentration=1 unit/mL at incubation) comprised:
10 μL/well of compound working solution or control working solution was added to all plates (T0, T5, T10, T20, T30, T60, NCF60) except the matrix blank. 80 μL/well of microsome solution was added to every plate. The mixtures of microsome solution and compound were incubated at 37° C. for about 10 min. 10 μL/well of NADPH regenerating system (pre-warmed to 37° C.) was then added to every plate to start the reaction. […] For NCF60 (abbreviation of no co-factor) no NADPH regenerating system was added, but was replaced by 10 μL/well of potassium phosphate buffer (100 mM, pH 7.4); the resulting mixture was incubated at 37° C. for 1 h.
The reactions were then terminated with the stop solution (cold at 4° C.) containing 100 ng/mL Tolbutamide and 100 ng/mL Labetalol ([…]). The sampling plates were shaken for approximately 10 minutes, then were centrifuged at 4000 rpm for 20 min at 4° C. While centrifuging, 8 new 96 well plates were loaded with […] of HPLC grade water. 100 μL of supernatant was finally added to 300 μL of HPLC grade water and mixed for LC/MS/MS analysis.
The equation of first order kinetics was used to calculate T1/2 and CIint(mic): […]

[5] = Caco-2 Permeability Assay; details: human
Experimental: Digoxin, fenoterol, and propranol were used as standards respectively. Transport Method:
The transport buffer used in the study was HBSS with 10 mM HEPES at pH 7.40±0.05. Compounds were tested at 2 μM bi-directionally in duplicates. Digoxin was tested at […] bi-directionally in a duplicate, while fenoterol and propranolol were tested at 2 μM in A(apical) to B (basolateral) direction in duplicates. The final DMSO concentration was adjusted to less than 1%. The plate was incubated for 2 hours in a CO2 incubator at 37±1° C., with 5% CO2 at saturated humidity without shaking. All samples, after mixing with acetonitrile containing internal standard, were centrifuged at 4000 rpm for 20 min. Subsequently,100 μL supernatant solution was diluted with 100 μL distilled water for LC/MS/MS analysis. Concentrations of test and control compounds in starting solution, donor solution, and receiver solution were quantified by LC/MS/MS methodologies, using peak area ratio of analyte/internal standard. After transport assay, lucifer yellow rejection assay was applied to determine the Caco-2 cell monolayer integrity.
Data analysis: The apparent permeability coefficient Papp (cm/s) was calculated using the equation:
The efflux ratio was calculated using the equation: Efflux ratio=Papp(BA)/Papp(AB)
Percent recovery was calculated using the equation: % Recovery=100×[(Vr·Cr)+(Vd·Cd)]/(Vd·C0) Where Vd is the volume in the donor chambers (0.075 mL on the apical side, 0.25 mL on the basolateral side); Cd and Cr are the final concentrations of transport compound in donor and receiver chambers, respectively.

Plasma Stability Assay = type: in vitro ADME, mouse; details: CD-1 Mouse Plasma
Experimental: Propantheline was used as the reference compound in this assay; all stock solutions were stored at −40° C. before use. • 2) Test system: CD-1 Mouse Plasma from a minimum of 20 male individuals were obtained from BioreclamationlVT (Catalog #: […]2-M; Batch #: MSE244515). EDTA-K2 was used as the anticoagulant. Procedure:
The frozen plasma was thawed in a water bath at 37° C. prior to the experiments. The plasma was centrifuged at 4000 rpm for 5 min and the clots were removed if necessary.
The pH was adjusted to 7.4±0.1 as necessary. An intermediate solution (1 mM) was prepared and a 100 μM dosing solution was prepared by diluting 10 μL of the intermediate solution with 90 μL 45% MeOH/H2O. Duplicate of test samples were made by mixing 98 μL of blank plasma with 2 μL of dosing solution (100 μM) to achieve the final concentration of 2 μM. Samples were incubated at 37° C. At each time point (0, 10, 30, 60, and 120 min), 400 μL of stop solution (consisting of 200 ng/mL tolbutamide and 20 ng/mL buspirone in 50% MeOH/CH3CN) was added to precipitate protein under thorough mixing. The sample plates were then centrifuged at 4,000 rpm for 10 min. An aliquot of supernatant (100 μL) was transferred from each well and mixed with 200 of μL ultrapure water. The samples were shaken at 800 rpm for about 10 min before LC-MS/MS analysis.
Data analysis: The % remaining of test compound after incubation in plasma was calculated using following equation: Remaining=100×(PAR at Tn/PAR at T0) where PAR is the peak area ratio of analyte versus internal standard (IS) and The appointed incubation time points are T0 (0 min), Tn (n=0, 10, 30, 60, 120 min).
LC-MS/MS condition: Each compound was analyzed by LC/MS using an ACE 5-phenyl 50×2.1 mm column (Part No. ACE-125-0502) with 0.1% formic acid in water and 0.1% formic acid in acetonitrile as the mobile phases. Tobultamide was used as the internal standard. Data collected were processed by Analyst 1.6.2 software and MultiQuant 3.0.2 software.

[6] = mouse, liver microsomes, pH 7.4
[7] = Caco-2, pH 7.4, Mean Recovery % A to B

COC(=O)N[C@H](C(=O)N1CCC[C@H]1C(=O)N[C@H](C(=O)O)C(C)C)C(C)C [Compound 50b, (methoxycarbonyl)-L-valyl-L-prolyl-L-valine] (Moc-Val-Pro-Val-OH)
inhibitory activity against HNE (in words) [1]: devoid of any inhibitory activities
IC50 [1]: Not Active

Cc1c(-c2ccnn2C)cc(C(=O)NCc2ccc(S(C)(=O)=O)cn2)c(=O)n1-c1cccc(C(F)(F)F)c1 [Compound 53]
IC50 [2]: 4.08 ± 0.39 nM
LipE [2]: 7.11
IC50 [3]: 2.98 ± 0.82 nM
LipE [3]: 7.22
LipE [1]: 7.32
IC50 ([1]; read-out: IC50): 2.62 ± 0.39 nM

CC1=C(C#N)[C@@H](c2ccc(C#N)cc2S(C)(=O)=O)N(C)C(=O)N1c1cccc(C(F)(F)F)c1 [Compound 54, BAY 85-8501]
LipE [2]: 5.87
inhibitory activity in patient sputum versus purified HNE (in words) ([2]; sputum samples of CF and COPD patients): potencies diminished drastically
LipE [3]: 6.85
LipE [1]: 6.76

COC(=O)C1=C(C)N(c2cccc(C(F)(F)F)c2)c2n[nH]c(=O)n2C1c1ccc(C#N)cc1 (stereo not drawn) [Compound 56]
IC50 [2]: 2.68 ± 0.04 nM
LipE [2]: 4.29
IC50 [3]: 1.12 ± 0.04 nM
LipE [3]: 4.67
LipE [1]: 4.59
IC50 ([1]; read-out: IC50): 1.34 ± 0.13 nM

COC(=O)C1=C(C)N(c2cccc(C(F)(F)F)c2)c2nn(CC(=O)N(C)CCC[N+](C)(C)C)c(=O)n2C1c1ccc(C#N)cc1 (stereo not drawn) [Compound 57]
IC50 [2]: 2.04 ± 0.08 nM
LipE [2]: 9.16
IC50 [3]: 0.97 ± 0.14 nM
LipE [3]: 9.45
LipE [1]: 9.46
IC50 ([1]; read-out: IC50): 0.99 ± 0.13 nM

O=C(O)Cc1ccccc1Nc1c(Cl)cccc1Cl [Diclofenac]
Remaining (*NCF = 60min) [4]: 88.0%
Remaining (T = 60 min) [4]: 43.0%
Extraction ratio ([4]; MLM 0.5, Qh 90.0 mL/min/Kg): 0.5
CLint scaled at 1 μM [4, 6]: 108 mL/min/kg
microsomal CLint at 1 μM [4, 6]: 27.2 µL/min/mg
half-life at 1 μM ([4]; mouse, microsomes, pH 7.4): 51 min

C[C@H]1O[C@@H](O[C@H]2[C@@H](O)C[C@H](O[C@H]3[C@@H](O)C[C@H](O[C@H]4CC[C@@]5(C)[C@H](CC[C@@H]6[C@@H]5C[C@@H](O)[C@]5(C)[C@@H](C7=CC(=O)OC7)CC[C@]65O)C4)O[C@@H]3C)O[C@@H]2C)C[C@H](O)[C@@H]1O [Digoxin]
Papp A→B at 120 min, 2 μM ([5]; Caco-2, pH 7.4): < 0.02 ×10⁻⁶ cm/s
Papp B→A at 120 min, 2 μM ([5]; Caco-2, pH 7.4): 8.5 ×10⁻⁶ cm/s
efflux ratio at 2 h, 2 μM ([5]; Caco-2, pH 7.4): > 364
recovery at 2 h, 2 μM [5, 7]: < 91.2%
recovery at 2 h, 2 μM ([5]; Caco-2, pH 7.4, Mean Recovery % B to A): 100%

CC(Cc1ccc(O)cc1)NCC(O)c1cc(O)cc(O)c1 (stereo not drawn) [Fenoterol]
Papp A→B at 120 min, 2 μM ([5]; Caco-2, pH 7.4): 0.24 ×10⁻⁶ cm/s
recovery at 2 h, 2 μM ([5]; Caco-2, pH 7.4): 93.4%

CC(C)[N+](C)(CCOC(=O)C1c2ccccc2Oc2ccccc21)C(C)C [Propantheline]
% Remaining (mean) (Plasma Stability Assay; 0 min, 2 μM, 37° C.): 100.0%
% Remaining (mean) (Plasma Stability Assay; 10 min): 76.8%
% Remaining (mean) (Plasma Stability Assay; 30 min): 39.1%
% Remaining (mean) (Plasma Stability Assay; 60 min): 21.7%
% Remaining (mean) (Plasma Stability Assay; 120 min): 7.7%

CC(C)NCC(O)COc1cccc2ccccc12 (stereo not drawn) [Propranolol]
Papp A→B at 120 min, 2 μM ([5]; Caco-2, pH 7.4): 19.8 ×10⁻⁶ cm/s
recovery at 2 h, 2 μM [5, 7]: 69.2%

C[C@]12CC[C@H]3[C@@H](CCC4=CC(=O)CC[C@@]43C)[C@@H]1CC[C@@H]2O [Testosterone]
CLint(liver) ([4]; MLM 0.5): 2365.5 mL/min/kg
Remaining (*NCF = 60min) [4]: 70.3%
Remaining (T = 60 min) [4]: 0.0%
half-life at 1 μM ([4]; mouse, microsomes, pH 7.4): 2.3 min
microsomal CLint ([4]; mouse, microsomes, pH 7.4): 597 µL/min/mg

POL6014 [Compound 55]
IC50 [2]: 0.48 ± 0.03 nM
LipE [2]: 17.8
IC50 [3]: 0.051 ± 0.004 nM
LipE [3]: 18.8
IC50 ([1]; read-out: IC50): 0.093 ± 0.008 nM
